SMILES strings stand for the structures.

For the test, the system named is acetylated microtubule in HEK293T cells. As to the kind of experiment: Microtubule-Stabilizing Activity Assay (acetylated microtubule immunoblot, HEK293T, colchicine challenge). The following applies: 1 h pre-incubation, then colchicine 1 μM 3 h, relative to CNDR-51657 at 500 nM = 1.00; for Microtubule-Stabilizing Activity 50 nM: compound 50 nM; for Microtubule-Stabilizing Activity 500 nM: compound 500 nM. Type of test: cell-based. As for the experimental part:
Compound solvent: 100% dimethyl sulfoxide (DMSO). Cell line: HEK293T (ATCC, CRL3216). Culture conditions: Cells were cultured in Dulbecco's Modified Eagle's Medium (DMEM) containing 10% fetal bovine serum and 1% penicillin/streptomycin. Cells were cultured at 37° C. in a Thermo-Fisher incubator with a humidified atmosphere of 5% carbon dioxide.
One day prior to the experiment, 100,000 cells were seeded at a density of 200,000 cells/ml in a 24-well plate.
On the day of the experiment, 20 μl of PBS phosphate buffer containing the test compound at experimental concentrations or an equivalent volume of DMSO was added to each well. After incubating at 37° C. for 1 hour, colchicine was added to each well at a final concentration of 1 μM, followed by an additional 3-hour incubation at 37° C. The plate was then placed on ice. The medium in each well was removed, and the cells were washed with ice-cold PBS. After aspirating the PBS, 0.1 mL of ice-cold RIPA lysis buffer (containing 0.5% sodium deoxycholate, 0.1% SDS, 1% NP-40, 5 mM EDTA, pH 8.0) was quickly added. Prior to use, a commercial protease inhibitor cocktail (1:500) and 1 μM deacetylase inhibitor Trichostatin A (Sangon Biotech Co., Ltd.) were added to the cell lysis buffer. The cell lysate were transferred to a 1.5 ml centrifuge tube, sonicated, and centrifuged at 13,000 rpm for 10 minutes. The supernatant was collected, and protein concentration was determined using the BCA assay.
Based on existing literature (Black, 1989; Kurt, 2011), acetylated microtubule was used as an indicator of microtubule polymerization to assess the microtubule-stabilizing efficacy of the compounds. HEK293T cell lysates were analyzed by SDS-PAGE (7.5% gel) and immunoblotted using acetylated microtubule antibody (1:20,000, Sigma-Aldrich, T7451) and α-microtubule antibody (1:2,000, Proteintech, 11224-1-AP). After incubation with fluorescent dye-conjugated IgG (1:40,000, Licor), the blots were visualized using an Odyssey-Dlx imaging system. Grayscale analysis was performed using ImageJ.
The compound activity was quantified with the microtubule-stabilizing activity of CNDR-51657 (C5) (Jane, 2016) at 500 nM as 1.00.
(A western blot detects proteins with antibodies after separation by electrophoresis.)

Regarding `C[C@H](Nc1c(-c2c(F)cc(O[C@@H]3C[C@H]4CNC[C@H]4C3)cc2F)c(Cl)nc2ncnn12)C(F)(F)F` [Example 42, 5-Chloro-6-(2,6-difluoro-4-(((3aR,5s,6aS)-octahydrocyclopenta[c]pyrrol-5-yl)oxy)phenyl)-N—((S)-1,1,1-trifluoropropan-2-yl)-[1,2,4]triazolo[1,5-a]pyrimidin-7-amine], the “Microtubule-Stabilizing Activity 50 nM” value was 0.25 and the “Microtubule-Stabilizing Activity 500 nM” value is 0.73.

`C[C@H](Nc1c(-c2c(F)cc(O[C@H]3C[C@@H]4CN(C)C[C@@H]4C3)cc2F)c(Cl)nc2ncnn12)C(F)(F)F` [Example 43, 5-Chloro-6-(2,6-difluoro-4-(((3aR,5s,6aS)-2-methyloctahydrocyclopenta[c]pyrrol-5-yl)oxy)phenyl)-N—((S)-1,1,1-trifluoropropan-2-yl)-[1,2,4]triazolo[1,5-a]pyrimidin-7-amine]: the “Microtubule-Stabilizing Activity 50 nM” value amounted to 0.09 and the “Microtubule-Stabilizing Activity 500 nM” value is 2.69.

`CC(C)[C@@H](C)Nc1c(-c2c(F)cc(C#C[C@@H]3[C@H]4CNC[C@@H]34)cc2F)c(Cl)nc2ncnn12.Cl` [Example 44, 6-(4-(((1R,5S,6s)-3-Azabicyclo[3.1.0]hexan-6-yl)ethynyl)-2,6-difluorophenyl)-5-chloro-N—((R)-3-methylbutan-2-yl)-[1,2,4]triazolo[1,5-a]pyrimidin-7-amine hydrochloride]: the “Microtubule-Stabilizing Activity 500 nM” value turned out to be 1.6.

For the compound `C[C@@H](Nc1c(-c2c(F)cc(C#C[C@@H]3[C@H]4CNC[C@@H]34)cc2F)c(Cl)nc2ncnn12)C1CCC1.Cl` [Example 45, 6-(4-(((1R,5S,6s)-3-Azabicyclo[3.1.0]hex-6-yl)ethynyl)-2,6-difluorophenyl)-5-chloro-N—((R)-1-cyclobutylethyl)-[1,2,4]triazolo[1,5-a]pyrimidin-7-amine hydrochloride], the “Microtubule-Stabilizing Activity 50 nM” value is recorded as 1.1 and the “Microtubule-Stabilizing Activity 500 nM” value turned out to be 1.3.

Turning to `C[C@H](Nc1c(-c2c(F)cc(C#C[C@@H]3[C@H]4CNC[C@@H]34)cc2F)c(Cl)nc2ncnn12)C(F)(F)F.Cl` [Example 47], the “Microtubule-Stabilizing Activity 50 nM” value was found to be 1.23 and the “Microtubule-Stabilizing Activity 500 nM” value is reported as 1.38.

Turning to `Cl.Fc1cc(C#C[C@@H]2[C@H]3CNC[C@@H]23)cc(F)c1-c1c(Cl)nc2ncnn2c1NCC(F)(F)F` [Example 49, 6-(4-(((1R,5S,6s)-3-Azabicyclo[3.1.0]hexan-6-yl)ethynyl)-2,6-difluorophenyl)-5-chloro-N-(2,2,2-trifluoroethyl)-[1,2,4]triazolo[1,5-a]pyrimidin-7-amine hydrochloride], the “Microtubule-Stabilizing Activity 50 nM” value is reported as 1.04 and the “Microtubule-Stabilizing Activity 500 nM” value was determined as 1.74.

Regarding `CN1C[C@@H]2C(C#Cc3cc(F)c(-c4c(Cl)nc5ncnn5c4NCC(F)(F)F)c(F)c3)[C@@H]2C1` (stereo partly drawn) [Example 50, 5-Chloro-6-(2,6-difluoro-4-(((1R,5S,6s)-3-methyl-3-azabicyclo[3.1.0]hexan-6-yl)ethynyl)phenyl)-N-(2,2,2-trifluoroethyl)-[1,2,4]triazolo[1,5-a]pyrimidin-7-amine], the “Microtubule-Stabilizing Activity 50 nM” value stood at 2.0 and the “Microtubule-Stabilizing Activity 500 nM” value is given as 2.78.

With `CC(C)[C@@H](C)Nc1c(-c2c(F)cc(/C=C/[C@@H]3[C@H]4CNC[C@@H]34)cc2F)c(Cl)nc2ncnn12.Cl` [Example 51, 6-(4-((E)-2-((1R,5S,6s)-3-Azabicyclo[3.1.0]hexan-6-yl)vinyl)-2,6-difluorophenyl)-5-chloro-N—((R)-3-methylbutan-2-yl)-[1,2,4]triazolo[1,5-a]pyrimidin-7-amine hydrochloride], the “Microtubule-Stabilizing Activity 500 nM” value is 1.85.

(Values after patent publication US20260226064A1, “POLYCYCLIC COMPOUND FOR TREATING NEUROLOGICAL DISEASES AND TUMORS” (Shanghai Institute of Organic Chemistry, Chinese Academy of …, priority 2023, published 2026).)
